Columns and labels:
human COX-1 = target: T1, human COX-1 (Homo sapiens, UniProt P23219); test: Inhibition of PGE2 release in COS cells stably transfected with human COX-1; type: cell-based; settings: COS cells transfected with human COX-1, 30 μM arachidonic acid
T1 construct: expressed in transfected cells; host or cells: COS cells (stably transfected)
Procedure: 24 Hours prior to experiment, COS cells were transferred from the 175 cm^2 flasks in which they were grown, onto 24-well cell culture plates using the following procedure. The incubation medium (Dulbecco's modified eagles medium (DMEM) supplemented with heat-inactivated foetal calf serum (10% v/v), penicillin (100 IU/ml), streptomycin (100 μg/ml) and genebcin (600 μg/ml)) was removed from a flask of confluent cells (1 flask at confluency contains approximately lx107 cells). 10 mI of phosphate buffered saline (PBS) was added to the flask to wash the cells. Having discarded the PBS, cells were then rinsed in 10 ml trypsin for 20 seconds, after which the trypsin was removed and the flask placed in an incubator (37°) for 1-2 minutes unbil cells became detached from the flask. The flask was then removed from the incubator and cells resuspended in 10 ml of fresh incubation medium. The contents of the flask was transferred to a 250 ml sterile container and the volume of incubation medium subsequently made up to 100 ml. […] If more than 1 flask of cells were required, the cells from the individual flasks were combined before being dispensed into the 24-well plates.
Following the overnight incubation, the incubation medium was completely removed from the 24-well cell culture plates and replaced with 250 μl fresh DMEM (37° C.). The test compounds were made up to 250× the required test concentration in DMSO and were added to the wells in a volume of 1 μl. […] Plates were then incubated for a further 15 minutes, after which the incubation medium was removed from each well of the plates and stored at −20° C., prior to determination of prostaglandin E2 (PGE2) levels using enzyme immunoassay. […] The selectivity ratio of inhibition of COX-1 versus COX-2 was calculated by comparing respective IC50 values.

human COX-2 = target: T2, human COX-2 (Homo sapiens, UniProt P35354); test: Inhibition of PGE2 release in COS cells stably transfected with human COX-2; type: cell-based; settings: COS cells transfected with human COX-2, 30 μM arachidonic acid
T2 construct: expressed in transfected cells; host or cells: COS cells (stably transfected)
T2 sequence (P35354 18-604): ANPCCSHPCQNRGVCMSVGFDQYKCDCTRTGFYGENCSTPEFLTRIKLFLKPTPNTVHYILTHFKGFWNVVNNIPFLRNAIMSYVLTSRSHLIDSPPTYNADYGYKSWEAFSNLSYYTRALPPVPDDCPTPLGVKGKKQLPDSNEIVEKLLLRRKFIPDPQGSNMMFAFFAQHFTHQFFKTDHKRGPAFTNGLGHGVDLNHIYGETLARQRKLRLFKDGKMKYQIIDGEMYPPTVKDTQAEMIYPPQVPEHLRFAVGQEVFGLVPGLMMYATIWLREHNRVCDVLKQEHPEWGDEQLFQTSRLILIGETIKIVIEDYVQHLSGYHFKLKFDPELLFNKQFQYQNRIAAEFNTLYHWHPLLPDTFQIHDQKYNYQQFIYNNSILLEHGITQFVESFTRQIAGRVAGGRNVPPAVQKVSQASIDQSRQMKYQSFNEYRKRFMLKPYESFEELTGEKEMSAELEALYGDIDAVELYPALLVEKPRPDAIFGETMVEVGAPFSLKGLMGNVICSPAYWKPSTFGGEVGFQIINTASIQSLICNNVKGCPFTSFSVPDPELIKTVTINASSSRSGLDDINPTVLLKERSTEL

microsomal h-COX2 = target: T3, microsomal h-COX2 (Homo sapiens, UniProt P35354); test: Microsomal assay, h-COX2 preparation from baculovirus infected SF9 cells; type: biochemical; settings: stated in text under the microsomal assay; read-out: IC50 values for inhibition of COX-2
T3 construct: made in house; host or cells: baculovirus infected SF9 cells (microsomal preparation)
T3 sequence (P35354 18-604): T2 sequence (P35354 18-604)
Procedure: Inhibitory activity against microsomal h-COX2 was assessed against a microsomal preparation from baculovirus infected SF9 cells. An aliquot of microsomal preparation was thawed slowly on ice and a 1/40,000 dilution prepared from it into the assay buffer (sterile water, degassed with argon containing 100 mM HEPES (pH 7.4), 10 mM EDTA (pH7.4), 1 mM phenol, 1 mM reduced glutathione, 20 mg/ml gelatin and 0.001 mM Hematin). Once diluted the enzyme solution was then sonicated for 5 seconds (Branson sonicator, setting 4, 1 cm tip) to ensure a homogeneous suspension. […] Plates were then mixed and incubated at room temperature for 1 hour. Following the incubation period, 40 μl of 0.5 μM arachidonic acid was added to each well to give a final concentration of 0.1 μM. Plates were then mixed and incubated for exactly 10 minutes (room temperature) prior to addition of 25 μl 1M HCl (hydrochloric acid) to each well to stop the reaction. 25 μl of 1M NaOH (sodium hydroxide) was then added to each well to neutralise the solution prior to determination of PGE2 levels by enzyme immunoassay (EIA).

T1 sequence (P23219 24-599): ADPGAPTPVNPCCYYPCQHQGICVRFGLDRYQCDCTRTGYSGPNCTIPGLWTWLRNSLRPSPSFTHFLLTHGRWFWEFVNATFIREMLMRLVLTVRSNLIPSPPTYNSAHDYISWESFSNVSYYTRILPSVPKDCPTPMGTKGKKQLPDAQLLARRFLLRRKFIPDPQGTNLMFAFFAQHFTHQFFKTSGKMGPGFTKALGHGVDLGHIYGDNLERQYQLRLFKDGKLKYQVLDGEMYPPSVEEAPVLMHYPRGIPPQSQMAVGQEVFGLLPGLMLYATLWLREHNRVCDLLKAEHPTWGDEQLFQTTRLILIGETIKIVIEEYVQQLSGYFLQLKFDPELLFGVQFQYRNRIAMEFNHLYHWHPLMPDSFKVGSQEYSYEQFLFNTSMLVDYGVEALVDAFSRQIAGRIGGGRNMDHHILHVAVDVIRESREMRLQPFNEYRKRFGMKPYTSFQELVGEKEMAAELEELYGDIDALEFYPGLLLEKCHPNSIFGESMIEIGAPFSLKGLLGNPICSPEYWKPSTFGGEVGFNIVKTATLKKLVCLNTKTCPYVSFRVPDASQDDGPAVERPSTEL

Row | IC50 (human COX-1) [nM] | IC50 (human COX-2) [nM] | IC50 (microsomal h-COX2) [nM] | Compound
1 | 3880 |  |  | COc1ccc(-c2nn3ncccc3c2-c2ccc(S(C)(=O)=O)cc2)cc1 [2.2(ii), 3-(4-Methanesulfonyl-phenyl)-2-(4-methoxy-phenyl)-pyrazolo[1,5-b]pyridazine]
2 |  | 3 |  | CCOc1ccc(-c2nn3ncccc3c2-c2ccc(S(C)(=O)=O)cc2)cc1 [2.3(ii), 2-(4-Ethoxy-phenyl)-3-(4-methanesulfonyl-phenyl)-pyrazolo[1,5-b]pyridazine]
3 |  | 370 |  | CS(=O)(=O)c1ccc(-c2c(-c3ccc(F)cc3)nn3nc(S(C)(=O)=O)ccc23)cc1 [2.4(iii), 2-(4-Fluoro-phenyl)-6-methanesulfonyl-3-(4-methanesulfonyl-phenyl)-pyrazolo[1,5-b]pyridazine]
4 | 3830 | 0.44 |  | CCOc1ccc(-c2nn3ncccc3c2-c2ccc(S(N)(=O)=O)cc2)cc1 [2.6(iv), 4-[2-(4-Ethoxy-phenyl)-pyrazolo[1,5-b]pyridazin-3-yl]-benzenesulfonamide]
5 | 81300 | < 1 |  | CS(=O)(=O)c1ccc(-c2cc(C(F)(F)F)nc(Oc3ccc(F)cc3)n2)cc1 [Example 1.1, 2-(4-Fluorophenoxy)-4-[4-(methylsulfonyl)phenyl]-6-(tiifluoromethyl)pyrimidine]
6 | 2920 | 4 |  | COc1ccc(Oc2nc(-c3ccc(S(C)(=O)=O)cc3)cc(C(F)(F)F)n2)cc1 [Example 1.3]
7 |  |  | ≤ 500 | CS(=O)(=O)c1ccc(-c2cc(C(F)(F)F)cc(NC3CCCCC3)n2)cc1 [Example 3.1, N-cyclohexyl-4-(trifluoromethyl)-6-[4-(methylsulfonyl)phenyl]pyridine-2-amine]
8 |  |  | ≤ 500 | Cc1cc(NCc2cnn(C)c2)nc(-c2ccc(S(C)(=O)=O)cc2)c1 [Example 3.3, 4-methyl-N-[(1-methyl-1H-pyrazol-4-yl)methyl]-6-[4-(methylsulfonyl)phenyl]-2-pyridinamine]
